These results are taken from patent publication US12252481B2, “Anti-viral compounds” (Aligos Therapeutics, Inc., priority 2021, dated 2025).

Assay [1] deals with B.1.1.7 lineage SARS-CoV-2. In words: microbe, parasite or virus in culture. The format is cell-based. The following applies: Severe acute respiratory syndrome coronavirus 2, 96 h; read-out: A549-dual_ACE2_TMPRSS2 (EC50).
Assay [2] deals with human beta-coronavirus OC43. In words: OC43 coronavirus antiviral assay in HeLa cells (cytopathic effect, cell-titer-glo). The format is cell-based. The following applies: Betacoronavirus 1, OC43, HeLa, 144 h, 6 days at 33° C., read-out: EC50 (class).
Assay [3] deals with T1, HRV3C (Human rhinovirus 14, UniProt P03303).
T1 construct: 3CLpro and HRV3C was added using a Multidrop Combi
In words: biochemical. Further details: species or system HRV. The following applies: HRV3C, 30 mins preincubation, SAMDI-MS; read-out: HRV IC50 (bound).

Assay [4] concerns the target T2, SARS-Cov-2 3CLpro (Severe acute respiratory syndrome coronavirus 2, UniProt P0DTD1).
T2 construct: 3CLpro and HRV3C was added using a Multidrop Combi
In words: biochemical. The following applies: 3CLpro, 30 mins preincubation, SAMDI-MS; read-out: SARS-Cov-2 IC50 (class).

T1 sequence (P03303 1538-1719): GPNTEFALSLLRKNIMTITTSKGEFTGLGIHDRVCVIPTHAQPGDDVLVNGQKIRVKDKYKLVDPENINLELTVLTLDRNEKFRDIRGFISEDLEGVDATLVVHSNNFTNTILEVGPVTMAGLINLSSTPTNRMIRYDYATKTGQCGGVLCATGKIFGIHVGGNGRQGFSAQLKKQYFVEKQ

By EC50 is commonly meant the concentration needed to bring the measured effect to its halfway point. The term IC50 denotes the concentration at which inhibition is half-maximal. Take `CC(C)(C)[C@H](NC(=O)C(F)(F)F)C(=O)N1C[C@H]2[C@@H]([C@H]1C(=O)N[C@H](C#N)C[C@@H]1Oc3cccnc3NC1=O)[C@H]1C=C[C@@H]2C1` [Compound 112, (1S,3aR,4S,7R,7aS)-N-((S)-1-cyano-2-((S)-3-oxo-3,4-dihydro-2H-pyrido[3,2-b][1,4]oxazin-2-yl)ethyl)-2-((S)-3,3-dimethyl-2-(2,2,2-trifluoroacetamido)butanoyl)-2,3,3a,4,7,7a-hexahydro-1H-4,7-methanoisoindole-1-carboxamide]: the concentration giving a half-maximal response (EC50) in assay [1] was less than 100 nM; in assay [2] it was 100 to 1000 nM. Moreover, the IC50 in assay [3] is greater than 500 nM; in assay [4], less than 20 nM.

Turning to `CC(C)(C)[C@H](NC(=O)C(F)(F)F)C(=O)N1C[C@H]2[C@@H]([C@H]1C(=O)N[C@H](C#N)C[C@@H]1Oc3ccncc3NC1=O)[C@H]1C=C[C@@H]2C1(F)F` [Compound 111], the EC50 in assay [1] is 100 to 1000 nM; in assay [2], less than 100 nM. Further, the IC50 in assay [3] is greater than 500 nM; in assay [4] it was less than 20 nM.

Consider `CC(C)(C)[C@H](NC(=O)C(F)(F)F)C(=O)N1C[C@@H]2[C@H]3C[C@H](C[C@@H]3F)[C@@H]2[C@H]1C(=O)N[C@H](C#N)C[C@@H]1OCCNC1=O` [Compound 119], for which the half-maximal effective concentration (EC50) in assay [1] and in assay [2] was 100 to 1000 nM throughout. Further, the half-maximal inhibitory concentration (IC50) was greater than 500 nM in assay [3] and 20 to 200 nM in assay [4].

Consider `C[C@H]1[C@H]2[C@@H]([C@@H](C(=O)N[C@H](C#N)C[C@@H]3CCNC3=O)N1C(=O)[C@@H](NC(=O)C(F)(F)F)C(C)(C)C)[C@H]1C=C[C@@H]2C1` [Example 93, (1R,2S,3S,5S,6R,7S)—N-[(1S)-1-cyano-2-[(3S)-2-oxopyrrolidin-3-yl]ethyl]-4-[(2S)-3,3-dimethyl-2-(2,2,2-trifluoroacetamido)butanoyl]-5-methyl-4-azatricyclo[5.2.1.0^{2,6}]dec-8-ene-3-carboxamide], for which the EC50 in assay [1] and in assay [2] was less than 100 nM in each case. Moreover, the results for the IC50 in assay [3] and in assay [4] were greater than 500 nM and less than 20 nM, respectively.

Regarding `C=C(C)C(C)(C)[C@H](NC(=O)C(F)(F)F)C(=O)N1C[C@H]2[C@@H]([C@H]1C(=O)N[C@H](C#N)C[C@@H]1CCNC1=O)[C@H]1C=C[C@@H]2C1` [Example 97], the concentration giving a half-maximal response (EC50) in assay [1] and in assay [2] was less than 100 nM throughout. Also, the half-inhibitory concentration (IC50) in assay [3] was greater than 10000 nM; in assay [4], less than 20 nM.

With `CC(C)(C)[C@H](NC(=O)C(F)(F)F)C(=O)N1C[C@H]2[C@@H]([C@H]1C(=O)N[C@H](C#N)C[C@@H]1CCNC1=O)[C@H]1C=C[C@@H]2C1O` (mixture of isomers) [Example 90, (1R,2R,3S,6S,7S)—N-[(1S)-1-cyano-2-[(3S)-2-oxopyrrolidin-3-yl]ethyl]-4-[(2S)-3,3-dimethyl-2-(2,2,2-trifluoroacetamido)butanoyl]-10-hydroxy-4-azatricyclo[5.2.1.0^{2,6}]dec-8-ene-3-carboxamide], the concentration giving a half-maximal response (EC50) in assay [1] lay in the range of 1000 to 10000 nM. The IC50 in assay [3] was greater than 10000 nM; in assay [4], 20 to 200 nM.

On to `CC(C)([C@H](NC(=O)C(F)(F)F)C(=O)N1C[C@H]2[C@@H]([C@H]1C(=O)N[C@H](C#N)C[C@@H]1CCNC1=O)[C@H]1C=C[C@@H]2C1)C(F)(F)F` [Compound 102a, (1S,3aR,4S,7R,7aS)-N-((S)-1-cyano-2-((S)-2-oxopyrrolidin-3-yl)ethyl)-2-((S)-4,4,4-trifluoro-3,3-dimethyl-2-(2,2,2-trifluoroacetamido)butanoyl)-2,3,3a,4,7,7a-hexahydro-1H-4,7-methanoisoindole-1-carboxamide], for which the half-maximal effective concentration (EC50) in assay [1] and in assay [2] was less than 100 nM each time. In addition, the half-maximal inhibitory concentration (IC50) in assay [3] was greater than 500 nM; in assay [4] it was less than 20 nM.

In the case of `CC(C)(C)[C@H](NC(=O)C(F)(F)F)C(=O)N1C[C@@H]2[C@@H]3C=C[C@@H]([C@H]4C[C@@H]34)[C@@H]2C1C(=O)N[C@H](C#N)C[C@@H]1CCNC1=O` (stereo partly drawn) [Example 88, (3aR,4R,4aR,5aS,6S,6aS)-N-((S)-1-cyano-2-((S)-2-oxopyrrolidin-3-yl)ethyl)-2-((S)-3,3-dimethyl-2-(2,2,2-trifluoroacetamido)butanoyl)-1,2,3,3a,4,4a,5,5a,6,6a-decahydro-4,6-ethenocyclopropa[f]isoindole-1-carboxamide], the half-maximal effective concentration (EC50) in assay [1] and in assay [2] was 100 to 1000 nM each time. Moreover, the values for the IC50 in assay [3] and in assay [4] were greater than 10000 nM and less than 20 nM, respectively.

`CC(C)(OCC1CC1)[C@H](NC(=O)C(F)(F)C(F)(F)F)C(=O)N1C[C@H]2[C@@H]([C@H]1C(=O)N[C@H](C#N)C[C@@H]1CCNC1=O)[C@H]1C=C[C@@H]2C1` [Compound 103]: the EC50 in assay [1] and in assay [2] was less than 100 nM each time. Also, the half-maximal inhibitory concentration (IC50) was greater than 500 nM in assay [3] and less than 20 nM in assay [4].

Take `N#C[C@H](C[C@@H]1CCNC1=O)NC(=O)[C@@H]1[C@@H]2[C@H](CN1C(=O)[C@H](CC1CCC1)NC(=O)C(F)(F)F)[C@@H]1C=C[C@H]2C1` [Example 95]: the EC50 in assay [1] and in assay [2] was less than 100 nM in each case. For the same compound, the figures for the IC50 in assay [3] and in assay [4] were greater than 10000 nM and less than 20 nM, respectively.

In the case of `CC(C)(C)[C@H](NC(=O)C(F)(F)C(F)(F)F)C(=O)N1C[C@@H]2[C@H]3C[C@@H]([C@@H]2[C@H]1C(=O)N[C@H](C#N)C[C@@H]1CCNC1=O)[C@H](F)C3` [Example 87, (1S,3aR,4S,6R,7S,7aR)—N-((S)-1-cyano-2-((S)-2-oxopyrrolidin-3-yl)ethyl)-2-((S)-3,3-dimethyl-2-(2,2,3,3,3-pentafluoropropanamido)butanoyl)-6-fluorooctahydro-1H-4,7-methanoisoindole-1-carboxamide], the EC50 in assay [1] and in assay [2] was less than 100 nM in each case. For the same compound, the 50% inhibitory concentration (IC50) in assay [3] is greater than 500 nM; in assay [4], less than 20 nM.

For `CC(C)(C)[C@H](NC(=O)C(F)(F)F)C(=O)N1C[C@H]2[C@@H]([C@H]1C(=O)N[C@H](C#N)C[C@@H]1Oc3cnccc3NC1=O)[C@H]1C=C[C@@H]2C1` [Compound 113], the EC50 in assay [1] and in assay [2] was less than 100 nM throughout. Further, the IC50 in assay [3] is greater than 500 nM; in assay [4], less than 20 nM.

Consider `[2H]C([2H])([2H])C([C@H](NC(=O)C(F)(F)F)C(=O)N1C[C@H]2[C@@H]([C@H]1C(=O)N[C@H](C#N)C[C@@H]1CCNC1=O)[C@H]1C=C[C@@H]2C1)(C([2H])([2H])[2H])C([2H])([2H])[2H]` [Compound 124], for which the half-maximal inhibitory concentration (IC50) in assay [3] is greater than 500 nM; in assay [4], less than 20 nM.

Take `CC(C)(C)[C@H](NC(=O)C(F)(F)F)C(=O)N1C[C@H]2[C@@H]([C@H]1C(=O)N[C@H](C#N)C[C@@H]1CCNC1=O)[C@H]1C=C[C@@H]2C1=O` [Example 89, (1R,2R,3S,6S,7S)—N-[(1S)-1-cyano-2-[(3S)-2-oxopyrrolidin-3-yl]ethyl]-4-[(2S)-3,3-dimethyl-2-(2,2,2-trifluoroacetamido)butanoyl]-10-oxo-4-azatricyclo[5.2.1.0^{2,6}]dec-8-ene-3-carboxamide]: the EC50 in assay [1] and in assay [2] was 100 to 1000 nM throughout. The IC50 in assay [3] was greater than 10000 nM; in assay [4], less than 20 nM.

On to `CC(C)(C)[C@H](NC(=O)C(F)(F)F)C(=O)N1C[C@H]2[C@@H]([C@H]1C(=O)N[C@H](C#N)C[C@@H]1OCCNC1=O)[C@H]1C=C[C@@H]2C1(F)F` [Compound 117], for which the EC50 in assay [1] and in assay [2] was less than 100 nM each time. In addition, the IC50 in assay [3] is greater than 500 nM; in assay [4] it was less than 20 nM.
